Experimental data as given in PubChem BioAssay AID248 (DTP/NCI, 2004).
Inconclusive results and toxic doses are left out. Rule as the data show it: active = T/C of 150% or more; inactive = T/C below 125%.

Test system: L1210 leukemia ip in BDF1 mice, survival T/C
Experiment: NCI In Vivo Anticancer Drug Screen. Data for tumor model L1210 Leukemia (intraperitoneal) in B6D2F1 (BDF1) mice
Conditions: endpoint: mean survival time, higher = longer survival
How it was run: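 Tumor was transplanted into mice, which were then dosed with test compound or vehicle alone. Survival was recorded for each group, and the treated figure was expressed relative to the control figure.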

[1] = dose: 100.0 mg/kg/injection, schedule: Q04DX003 (ip), vehicle: saline with Tween-80
[2] = dose: 200.0 mg/kg/injection, schedule: Q04DX003 (ip), vehicle: saline with Tween-80
[3] = dose: 400.0 mg/kg/injection, schedule: Q04DX003 (ip), vehicle: saline with Tween-80
[4] = dose: 100.0 mg/kg/injection, schedule: Q04DX003 (ip), vehicle: Klucel (hydroxypropylcellulose) (HPC)
[5] = dose: 200.0 mg/kg/injection, schedule: Q04DX003 (ip), vehicle: Klucel (hydroxypropylcellulose) (HPC)

Measured: T/C

CCOC(=O)C(C)C(C)(O)c1ccccc1 (configuration not stated)
inactive: dose: 100.0 mg/kg/injection, schedule: Q01DX009 (ip), vehicle: saline with Tween-80 95 % of control | dose: 200.0 mg/kg/injection, schedule: Q01DX009 (ip), vehicle: saline with Tween-80 109 % of control | dose: 400.0 mg/kg/injection, schedule: Q01DX009 (ip), vehicle: saline with Tween-80 96 % of control

S=c1nc[nH]c2c1CP(c1ccccc1)CC2 (configuration not stated)
inactive: [1] 110 % of control | [2] 100 % of control | [3] 101 % of control

Cc1ccc(S(=O)(=O)OCCC2(C)CC2)cc1
inactive: dose: 100.0 mg/kg/injection, schedule: Q01DX001 (ip), vehicle: saline with Tween-80 93 % of control | dose: 200.0 mg/kg/injection, schedule: Q01DX001 (ip), vehicle: saline with Tween-80 90 % of control | dose: 400.0 mg/kg/injection, schedule: Q01DX001 (ip), vehicle: saline with Tween-80 90 % of control

Cc1ccc(-c2cc3ccccc3[nH]2)cc1
inactive: dose: 50.0 mg/kg/injection, schedule: Q01DX009 (ip), vehicle: Klucel (hydroxypropylcellulose) (HPC) 94 % of control | dose: 100.0 mg/kg/injection, schedule: Q01DX009 (ip), vehicle: Klucel (hydroxypropylcellulose) (HPC) 89 % of control | [4] 91 % of control | dose: 200.0 mg/kg/injection, schedule: Q01DX009 (ip), vehicle: Klucel (hydroxypropylcellulose) (HPC) 86 % of control | [5] 90 % of control

CC(C)CCCC(C)CCCC(C)CCCC(C)CC(=O)O (configuration not stated)
inactive: dose: 100.0 mg/kg/injection, schedule: Q01DX001 (ip), vehicle: olive oil, sesame oil, peanut oil 103 % of control | dose: 200.0 mg/kg/injection, schedule: Q01DX001 (ip), vehicle: olive oil, sesame oil, peanut oil 101 % of control | dose: 400.0 mg/kg/injection, schedule: Q01DX001 (ip), vehicle: olive oil, sesame oil, peanut oil 91 % of control

CC1=CCCCC1Oc1ccccc1 (configuration not stated)
inactive: [1] 104 % of control | [2] 96 % of control | [3] 109 % of control

Clc1ccc(CSSCc2ccc(Cl)cc2)cc1
inactive: dose: 100.0 mg/kg/injection, schedule: Q04DX002 (ip), vehicle: Klucel (hydroxypropylcellulose) (HPC) 95 % of control | dose: 200.0 mg/kg/injection, schedule: Q04DX002 (ip), vehicle: Klucel (hydroxypropylcellulose) (HPC) 110 % of control | dose: 400.0 mg/kg/injection, schedule: Q04DX002 (ip), vehicle: Klucel (hydroxypropylcellulose) (HPC) 100 % of control

COc1cc2c(cc1OC)C(=O)CN(S(=O)(=O)c1ccc(C)cc1)CC2
inactive: dose: 50.0 mg/kg/injection, schedule: Q01DX009 (ip), vehicle: saline sonified 101 % of control | dose: 100.0 mg/kg/injection, schedule: Q01DX009 (ip), vehicle: saline sonified 87 % of control | [4] 96 % of control | dose: 200.0 mg/kg/injection, schedule: Q01DX009 (ip), vehicle: saline sonified 89 % of control | [5] 96 % of control | dose: 400.0 mg/kg/injection, schedule: Q04DX003 (ip), vehicle: Klucel (hydroxypropylcellulose) (HPC) 97 % of control

Cc1ccc(S(=O)(=O)OCC(CO)(CO)[N+](=O)[O-])cc1
inactive: dose: 50.0 mg/kg/injection, schedule: Q01DX009 (ip), vehicle: saline 90 % of control | dose: 100.0 mg/kg/injection, schedule: Q01DX009 (ip), vehicle: saline 92 % of control | dose: 100.0 mg/kg/injection, schedule: Q04DX003 (ip), vehicle: saline 97 % of control | dose: 200.0 mg/kg/injection, schedule: Q01DX009 (ip), vehicle: saline 90 % of control | dose: 200.0 mg/kg/injection, schedule: Q04DX003 (ip), vehicle: saline 88 % of control

CC(=O)C1(c2ccccc2)C(C)(C)C(C)(C)C(=O)C(C)(C)C1(C)C
inactive: dose: 100.0 mg/kg/injection, schedule: Q04DX002 (ip), vehicle: gum acacia 99 % of control | dose: 200.0 mg/kg/injection, schedule: Q04DX002 (ip), vehicle: gum acacia 96 % of control | dose: 400.0 mg/kg/injection, schedule: Q04DX002 (ip), vehicle: gum acacia 92 % of control
